Laboratory results from PMC3914891, “Pentacyclic Nitrofurans with In Vivo Efficacy and Activity against Nonreplicating Mycobacterium tuberculosis” (PLoS ONE, 2014).
Converted amounts (≈) assume the structure as drawn. Read-outs that look alike come from different tables or passages of the source.

Columns and labels:
[1] = system: Acinetobacter baumannii (ATCC 19606); assay: MIC, spectrum of activity: Acinetobacter baumannii; assay type: cell-based; details: ATCC19606
[2] = system: M. tuberculosis Erdman; details: for Log10CFU Reduction (SEM), lungs / Log10CFU Reduction (SEM), spleen: vs untreated
[3] = system: Bacillus anthracis sterne 34F2; assay: microbe, parasite or virus in culture; assay type: cell-based; details: STERNE34F2, read-out: Minimum Inhibitory Concentration, B.a.
[4] = system: Escherichia coli (ATCC 700926); assay: MIC, spectrum of activity: E.c.; assay type: cell-based; details: ATCC700926, read-out: Minimum Inhibitory Concentration, E.c.
[5] = group 1: 9a 300 mg/kg QD oral, 9 days, in 0.5% methylcellulose in DI-H2O
[6] = group 2: 9a 300 mg/kg QD oral, 9 days, in 30% Captisol in DI-H2O
[7] = group 3: 9a 300 mg/kg QD oral, 9 days, in 10% Vitamin E TPGS in DI-H2O
[8] = group 4: 9a 300 mg/kg QD oral, 9 days, in 0.5% Tween 80 in DI-H2O
[9] = group 5: 9a 300 mg/kg QD oral, 9 days, in 20% cyclodextrin in DI-H2O
[10] = group 6: 9a 300 mg/kg QD oral, 9 days, in cold PEG (50:35:15 H2O:PEG300:PG)

## O=[N+]([O-])c1ccc(C2=NOC(c3ccc(N4CCC(Oc5ccc(OC(F)(F)F)cc5)CC4)cc3)C2)o1 (stereo not drawn) [Compound 9a, 3-(5-Nitrofuran-2-yl)-5-(4-(4-(4-(trifluoromethoxy)phenoxy)piperidin-1-yl)phenyl)-4,5-dihydroisoxazole]
[1]
  MIC: > 200 µg/mL
[2]; GKO mice, 300 mg/kg oral daily, 9 days, across formulations
  reduction of bacterial load in lungs: 91–97%
[2]; GKO mice, after 9 days of treatment
  reduction in bacillary load, lungs and spleens: > 90%
[2]; GKO mice, daily oral administration at 300 mg/kg, 9 days, each of six formulations
  tolerability: well tolerated
[2]; [5]
  Log10CFU Reduction (SEM), lungs: 1.06 (0.18) Log10CFU
  Log10CFU (SEM), lungs: 7.01 (0.11) Log10CFU
  Log10CFU Reduction (SEM), spleen: 0.95 (0.18) Log10CFU
  Log10CFU (SEM), spleen: 6.25 (0.11) Log10CFU
[2]; [6]
  Log10CFU Reduction (SEM), lungs: 1.30 (0.20) Log10CFU
  Log10CFU (SEM), lungs: 6.77 (0.14) Log10CFU
  Log10CFU Reduction (SEM), spleen: 1.48 (0.17) Log10CFU
  Log10CFU (SEM), spleen: 5.72 (0.09) Log10CFU
[2]; [7]
  Log10CFU Reduction (SEM), lungs: 1.47 (0.18) Log10CFU
  Log10CFU (SEM), lungs: 6.61 (0.11) Log10CFU
  Log10CFU Reduction (SEM), spleen: 1.77 (0.27) Log10CFU
  Log10CFU (SEM), spleen: 5.43 (0.23) Log10CFU
[2]; [8]
  Log10CFU Reduction (SEM), lungs: 1.38 (0.16) Log10CFU
  Log10CFU (SEM), lungs: 6.69 (0.07) Log10CFU
  Log10CFU Reduction (SEM), spleen: 1.17 (0.18) Log10CFU
  Log10CFU (SEM), spleen: 6.03 (0.12) Log10CFU
[2]; [9]
  Log10CFU Reduction (SEM), lungs: 1.08 (0.15) Log10CFU
  Log10CFU (SEM), lungs: 6.99 (0.06) Log10CFU
  Log10CFU Reduction (SEM), spleen: 1.44 (0.16) Log10CFU
  Log10CFU (SEM), spleen: 5.76 (0.08) Log10CFU
[2]; [10]
  Log10CFU Reduction (SEM), lungs: 1.10 (0.21) Log10CFU
  Log10CFU (SEM), lungs: 6.99 (0.15) Log10CFU
  Log10CFU Reduction (SEM), spleen: 1.03 (0.20) Log10CFU
  Log10CFU (SEM), spleen: 6.17 (0.14) Log10CFU
[3]
  MIC: 12.5 µg/mL (≈ 24.2 µM)
[4]
  MIC: > 200 µg/mL
